According to patent US20240352022A1, “GROUP OF IMB-C5 SERIES COMPOUNDS HAVING ANTI-CORONAVIRUS ACTIVITY AND APPLICATION THEREOF” (priority 2021, published 2024):
pEC50: −log10 of the molar value.

Columns and labels:
[1] = test system: HCoV-229E; experiment: anti-HCoV-229E activity in Huh7.5 cells by cytopathic effect (CPE) assay; assay type: cell-based, Human coronavirus HCoV-229E; details: Human coronavirus 229E, HCoV-229E 100 TCID50 in Huh7.5 cells, about 48 h
[2] = CCK-8 cytotoxicity assay in Huh7 cells; assay type: cell-based; details: human, Huh7 hepatocellular carcinoma cells, CCK-8, 48 hours, read-out: TC50
Experimental: (§1) In order to determine the possible cytotoxicity of IMB-C5 and IMB-85, the CCK-8 assay was first used to detect the effect of the two compounds at different concentrations on viability of different cells 48 hours after administration.

[3] = test system: HCoV-229E; experiment: anti-HCoV-229E activity in Huh7 cells by cytopathic effect (CPE) assay; assay type: cell-based, Human coronavirus HCoV-229E; details: Human coronavirus 229E, Huh-7, HCoV-229E 100 TCID50 in Huh7 cells, about 48 h
[4] = test system: HCoV-229E; experiment: time-of-addition experiment, HCoV-229E in Huh7 cells (Western blotting and immunofluorescence); assay type: cell-based, Human coronavirus HCoV-229E; parameters: dose or concentration left out as unconfirmed
[5] = test system: HCoV-OC43; experiment: N protein level of HCoV-OC43 in C3A cells (Western Blotting); assay type: cell-based, Human coronavirus HCoV-OC43; details: 24 h
Experimental: The viral N protein level was determined after 24 h.
The effect of IMB-C5 and IMB-85 on N protein level of coronavirus HCoV-OC43 was determined. C3A cells were infected at a viral load of MOI=0.037, and simultaneously administered with IMB-C5 (10 μM), IMB-85 (10 μM, 2 μ, 0.4 μM and 0.08 μM) and MNP (the positive control, 15 μM). After 24 h, the protein was extracted for Western blotting.

[6] = CCK-8 cytotoxicity assay in Huh7.5 cells; assay type: cell-based; details: human, Huh7.5 hepatocellular carcinoma cells, CCK-8, 48 hours, read-out: TC50
Experimental: as §1

[7] = test system: HCoV-229E; experiment: dsRNA production during replication of HCoV-229E in Huh7 cells (immunofluorescence assay); assay type: cell-based, Human coronavirus HCoV-229E
[8] = test system: HCoV-229E; experiment: N protein level of HCoV-229E in Huh7 cells (Western Blotting); assay type: cell-based, Human coronavirus HCoV-229E; details: 24 h
[9] = test system: HCoV-229E; experiment: mRNA level of HCoV-229E N protein in Huh7 cells (RT-qPCR); assay type: cell-based, Human coronavirus HCoV-229E; details: 24 h
[10] = test system: HCoV-229E; experiment: N protein level of HCoV-229E in Huh7.5 cells (Western Blotting); assay type: cell-based, Human coronavirus HCoV-229E; details: MOI=1, different concentrations, 24 h
[11] = in vitro; details: human
[12] = test system: HCoV-OC43; experiment: time-of-addition experiment, HCoV-OC43 in C3A cells (immunofluorescence assay); assay type: cell-based, Human coronavirus HCoV-OC43; details: 50 μM
[13] = in vitro; details: African green monkey
[14] = in vitro; details: human; remark: listed apart in the source
[15] = test system: HCoV-229E; experiment: mRNA level of HCoV-229E N protein in Huh7.5 cells (RT-qPCR); assay type: cell-based, Human coronavirus HCoV-229E; details: MOI=0.035, three concentrations, 24 h
[16] = test system: HCoV-OC43; experiment: mRNA level of HCoV-OC43 N protein in C3A cells (RT-qPCR); assay type: cell-based, Human coronavirus HCoV-OC43; details: MOI=0.023, three concentrations, 24 h
[17] = from reference [5]; cited from earlier work
[18] = MOI=17, IMB-85 3, 0.6 and 0.12 μM

Row | Structure (SMILES) | pEC50 [1] | pEC50 [3] | N protein level of HCoV-229E ([8]; MOI=1, 5 μM compound) | CC50 [11] [µM] | CC50 [14] [µM] | other results
1 | CCCCc1ccc(Cn2c(NCCO)nc3c2c(=O)n(C)c(=O)n3C)cc1 [IMB-85, 7-(4-butylbenzyl)-8-((2-hydroxyethyl)amino)-1,3-dimethyl-3,7-dihydro-1H-purine-2,6-dione] | 5.39 | 7.05 | best activity in decreasing HCoV-229E N protein level | – | – | CC50 at 48 h [2]: > 200 µM; antiviral effect (N protein and dsRNA level), time of addition ([4]; IMB-85, HCoV-229E MOI=10, administered 6 h or more after infection): diminished antiviral effect; antiviral effect (N protein and dsRNA level), time of addition ([4]; IMB-85, HCoV-229E MOI=10, at the time of infection or within 1-5 h after infection): significant inhibitory effect on virus; N protein level of HCoV-OC43 ([5]; MOI=0.037, IMB-85 10, 2, 0.4 and 0.08 μM): decreased the HCoV-OC43 N protein level in C3A cells in a dose-dependent manner; CC50 at 48 h [6]: > 200 µM; dsRNA production during replication of HCoV-229E ([7]; MOI=17, 24 h): inhibited dsRNA production; N protein level of HCoV-229E ([8]; MOI=1, different concentrations): decreased the HCoV-229E N protein level in Huh7 cells in a dose-dependent manner; protein level of HCoV-229E N protein [8, 18]: decreased mRNA and protein level of HCoV-229E N protein in Huh7 cells in a dose-dependent manner; mRNA level of HCoV-229E N protein [9, 18]: decreased mRNA and protein level of HCoV-229E N protein in Huh7 cells in a dose-dependent manner; N protein level of HCoV-229E [10]: decreased the HCoV-229E N protein level in Huh7.5 cells in a dose-dependent manner
2 | Cn1c(=O)c2c(nc(NCCO)n2Cc2ccc(OC(F)F)cc2)n(C)c1=O [IMB-2-8, 7-(4-(difluoromethoxy)benzyl)-8-((2-hydroxyethyl)amino)-1,3-dimethyl-3,7-dihydro-1H-purine-2,6-dione] | – | 5.61 | inhibited HCoV-229E in Huh7 cells to different degrees | > 200 | – | –
3 | Cn1c(=O)c2c(nc(NCCO)n2CC2CCOCC2)n(C)c1=O [IMB-3-19, ((2-hydroxyethyl)amino)-1,3-dimethyl-7-((tetrahydro-2H-pyran-4-yl)methyl)-3,7-dihydro-1H-purine-2,6-dione] | – | 5.73 | inhibited HCoV-229E in Huh7 cells to different degrees | > 200 | – | –
4 | Cn1c(=O)c2c(nc(NCCO)n2Cc2cccc(Cl)c2)n(C)c1=O [IMB-2-5, 7-(3-chlorobenzyl)-8-((2-hydroxyethyl)amino)-1,3-dimethyl-3,7-dihydro-1H-purine-2,6-dione] | – | 5.88 | inhibited HCoV-229E in Huh7 cells to different degrees | 200 | – | –
5 | Cn1c(=O)c2c(nc(NCCO)n2Cc2cccc(OC(F)(F)F)c2)n(C)c1=O [IMB-92, 8-((2-hydroxyethyl)amino)-1,3-dimethyl-7-(3-(trifluoromethoxy)benzyl)-3,7-dihydro-1H-purine-2,6-dione] | – | 6.19 | inhibited HCoV-229E in Huh7 cells to different degrees | 144 | – | –
6 | COc1cccc(Cn2c(NCCO)nc3c2c(=O)n(C)c(=O)n3C)c1 [IMB-C5] | 4.57 | 5.18 | – | > 139 | > 139 | antiviral effect, time of addition ([12]; HCoV-OC43 MOI=0.28, administered 1 h to 4 h after infection): better antiviral effect; antiviral effect, time of addition ([12]; HCoV-OC43 MOI=0.28, administered 6 h or more after infection): greatly diminished antiviral effect; antiviral effect, time of addition ([12]; HCoV-OC43 MOI=0.28, administered at the time of virus infection): most significant inhibitory effect on virus; CC50 at 48 h [2]: > 200 µM; CC50 [13]: 493 µM; mRNA level of HCoV-229E N protein [15]: decreased mRNA level of HCoV-229E N protein in both Huh7 and Huh7.5 cells in a dose-dependent manner; mRNA level of HCoV-OC43 N protein [16]: decreased mRNA level of HCoV-OC43 N protein in C3A cells in a dose-dependent manner; N protein level of HCoV-OC43 ([5]; MOI=0.023, three concentrations): inhibited the expression of the viral N protein in a dose-dependent manner; CC50 at 48 h [6]: > 200 µM; dsRNA production during replication of HCoV-229E ([7]; MOI=0.035, gradient concentrations, 24 h): had an inhibitory effect on dsRNA production; dsRNA production during replication of HCoV-229E ([7]; MOI=17, 24 h): inhibited dsRNA production; effect on blood lipids and atherosclerotic plaque formation [17]: good effect on lowering blood lipids and inhibiting atherosclerotic plaque formation; mRNA level of HCoV-229E N protein ([9]; MOI=0.035, three concentrations): decreased mRNA level of HCoV-229E N protein in both Huh7 and Huh7.5 cells in a dose-dependent manner
7 | Cn1c(=O)c2c(nc(NCCO)n2Cc2c(F)cccc2F)n(C)c1=O [IMB-93, 7-(2,6-difluorobenzyl)-8-((2-hydroxyethyl)amino)-1,3-dimethyl-3,7-dihydro-1H-purine-2,6-dione] | – | 5.61 | inhibited HCoV-229E in Huh7 cells to different degrees | > 200 | – | –
8 | COc1cccc(Cn2c(NCC(N)=O)nc3c2c(=O)n(C)c(=O)n3C)c1 [IMB-ZHC-15, ((7-(3-methoxybenzyl)-1,3-dimethyl-2,6-dioxo-2,3,6,7-tetrahydro-1H-purin-8-yl)amino)acetamide] | 4.23 | 4.35 | – | > 134 | > 134 | –
9 | COc1cccc(Cn2c(NCc3ccc(F)c(C(F)(F)F)c3)nc3c2c(=O)n(C)c(=O)n3C)c1 [IMB-ZH-11, 8-((4-fluoro-3-(trifluoromethyl)benzyl)amino)-7-(3-methoxybenzyl)-1,3-dimethyl-3,7-dihydro-1H-purine-2,6-dione] | 4.58 | 4.68 | – | > 102 | > 102 | –
10 | Cc1ccccc1Cn1c(NCCO)nc2c1c(=O)n(C)c(=O)n2C [IMB-68, 8-((2-hydroxyethyl)amino)-1,3-dimethyl-7-(2-methylbenzyl)-3,7-dihydro-1H-purine-2,6-dione] | – | 5.84 | inhibited HCoV-229E in Huh7 cells to different degrees | 200 | – | –
11 | COc1cccc(Cn2c(NC[C@H](C)O)nc3c2c(=O)n(C)c(=O)n3C)c1 [IMB-ZHC-7, (S)-8-((2-hydroxypropyl)amino)-7-(3-methoxybenzyl)-1,3-dimethyl-3,7-dihydro-1H-purine-2,6-dione] | 4.35 | 4.72 | – | > 134 | > 134 | –
12 | Cn1c(=O)c2c(nc(NCCO)n2Cc2cccc(F)c2F)n(C)c1=O [IMB-82, 7-(2,3-difluorobenzyl)-8-((2-hydroxyethyl)amino)-1,3-dimethyl-3,7-dihydro-1H-purine-2,6-dione] | 4.16 | 4.52 | – | > 274 | > 274 | –
13 | Cn1c(=O)c2c(nc(NCCO)n2Cc2ccc(Cl)cc2)n(C)c1=O [IMB-2-14] | – | 5.84 | inhibited HCoV-229E in Huh7 cells to different degrees | 200 | – | –
14 | COC(=O)CNc1nc2c(c(=O)n(C)c(=O)n2C)n1Cc1cccc(OC)c1 [IMB-ZHC-2, methyl(7-(3-methoxybenzyl)-1,3-dimethyl-2,6-dioxo-2,3,6,7-tetrahydro-1H-purin-8-yl)glycinate] | 4.37 | 4.54 | – | > 129 | > 129 | –
15 | Cn1c(=O)c2c(nc(NCCO)n2Cc2ccccc2)n(C)c1=O [IMB-ZHB-13x, 7-benzyl-8-((2-hydroxyethyl)amino)-1,3-dimethyl-3,7-dihydro-1H-purine-2,6-dione] | 4.41 | 5.25 | – | > 152 | > 152 | –
16 | COc1cccc(Cn2c(N[C@@H](CO)C(C)C)nc3c2c(=O)n(C)c(=O)n3C)c1 [IMB-ZH-12, (R)-8-((1-hydroxy-3-methylbutan-2-yl)amino)-7-(3-methoxybenzyl)-1,3-dimethyl-3,7-dihydro-1H-purine-2,6-dione] | 4.22 | 4.22 | – | > 125 | > 125 | –
